Entries after “also recorded” stand apart in the source; their conditions may differ. Read-outs that look alike come from different tables or passages of the source.
Tests used:
ISC-enriched organoids [1] = assay: Secondary (validation) screen, 384-well 2.5-D, ENR+CD 6 days, n=8 wells, vs ENR+CD+DMSO control: carbachol-induced lysozyme secretion (LYZ.S); assay type: cell-based, murine
ISC-enriched organoids [2] = assay: Secondary (validation) screen, 384-well 2.5-D, ENR+CD 6 days, n=8 wells, vs ENR+CD+DMSO control: ATP (CTG); assay type: cell-based, murine
Paneth cells = assay: Flow cytometry of 3D-cultured intestinal organoids (ENR+CD, 6 days): Paneth cell fraction (lysozyme-positive, CD24-mid); assay type: cell-based, murine; conditions: ENR+CD 6 days, 3-D culture
Method: Flow cytometry analysis (3D culture). ISC-enriched organoids cultured in 3D Matrigel with ENRCV media were passaged to 24-well plate in 3D Matrigel with ENRCV. At day zero, media were replaced to ENRCD with or without indicated compounds, and media were replaced every other day. […] Flow cytometry was performed using an LSR Fortessa (BD; Koch Institute Flow Cytometry Core at MIT). The data were analyzed using FlowJo v10 software.
Single live cells were selected by several gating strategies and Paneth cells were identified as lysozyme-high, CD24-mid, side scatter-high (SSC-high) (FIG. 27E). […] To evaluate whether the culture media supplements C and D may alter the effects of the 6 hits, Applicants also performed lysozyme assay in the canonical ENR culture condition in 3-D (because Paneth cells exist in an immature state within ENR, Applicants were unable to robustly quantify Paneth cell number via flow cytometry).
(§1) Flow cytometry. ISC-enriched organoids in 3D Matrigel culture were passaged to a 48-well plate and induced differentiation for 6 days by ENR+CD media containing DMSO or each drug indicated in the figures. DMSO- or drug-containing media were changed every other day. […] After vigorous pipetting and incubation at 37° C. for 15 min, the cell solution was diluted twice with basal media and centrifuged at 300 rcf for 3 min. […] The cell solution was centrifuged again at 300 rcf for 3 min at 4° C. to pellet the cells. […] Cells were centrifuged again for 3 min at 300 rcf and blocked with staining buffer (FACS buffer containing 0.5% Tween20 (Sigma, P2287)) for 15 min at RT in the dark. […] Flow cytometry was performed using an LSR Fortessa (BD; Koch Institute Flow Cytometry Core at MIT). Flow cytometry data were analyzed using FlowJo X v10.6.1 software.
Live Paneth cells were identified as LYZ-high, CD24-mid, side scatter-high (SSC-high) (FIG. 50F).
as §1, with “organoids in 3-D Matrigel culture” for “organoids in 3D Matrigel culture”, “to a 24- or 48-well plate” for “to a 48-well plate”

ISC-enriched organoids [3] = assay: Primary screen, 384-well 2.5-D organoid differentiation (ENR+CD, 6 days, Target Selective Inhibitor Library, vs whole-plate median): ATP (CellTiter-Glo 3D, CTG); conditions: standard z score of FC
ISC-enriched organoids [4] = assay: Secondary (validation) screen, 384-well 2.5-D, ENR+CD 6 days, n=8 wells, vs ENR+CD+DMSO control: basal lysozyme secretion (LYZ.NS); assay type: cell-based, murine
ISC-enriched organoids [5] = assay: Lysozyme secretion assay, 3-D organoids in ENR+CD, normalized to ATP; assay type: cell-based, murine; conditions: for Paneth cell differentiation (functional LYZ secretion), in combination with KPT-330: 6-day ENR+CD differentiation with 160 nM KPT-330; for Paneth cell differentiation (functional LYZ secretion), compound alone: 6-day ENR+CD differentiation, 10 μM SR11302, 20 nM Cobimetinib, others over a dose range
Method: Lysozyme assay (3D culture). ISC-enriched organoids cultured in 3D Matrigel with ENRCV media were passaged to 48-well plate in 3D Matrigel with ENRCV. At day zero, media were replaced to ENR or ENRCD with or without indicated compounds, and media were replaced every other day. At day six, cells were washed twice with basal media and treated with carbamylcholine chloride (Sigma, C4382) for 3 hours. Media were collected and lysozyme activity was measured by EnzChek Lysozyme Assay Kit (ThermoFisher, E22013).
(§2) Lysozyme secretion assay. ISC-enriched organoids in 3D Matrigel culture were passaged to a 48- or 96-well plate and cultured with ENR or ENR+CD media containing DMSO or each drug for 6 days. DMSO- or drug-containing media were changed every other day. On day 6, cells were washed with basal media twice and treated with basal media with or without 10 μM carbamoylcholine chloride for 3 h in a CO2 incubator at 37° C. A part of the conditioned media was collected and used for lysozyme assay (Thermo, E-22013) following the manufacturer's instruction. The fluorescence was measured using excitation/emission of 485/530 nm. CellTiter-Glo 3D Reagent (Promega, G9681) was added afterward, and the cell culture plate was incubated on an orbital shaker at RT for 30 min to induce cell lysis and to stabilize the luminescent signal. The solution was replaced to a 96-well white microplate, and luminescent signals were measured by a microplate reader (infinite M200, Tecan). The standard curve was prepared by diluting recombinant ATP (Promega, P1132). For both assays, a polynomial cubic curve was fitted to a set of standard data, and each sample value was calculated on the Microsoft Excel.
as §2, with “in 3-D” for “in 3D”, “μM carbachol” for “μM carbamoylcholine chloride”, “3 hours” for “3 h”, “C. Conditioned” for “C. A part of the conditioned”, “nm. CTG” for “nm. CellTiter-Glo”, “Reagent” for “Reagent (Promega, G9681)”

[6] = test system: ISC-enriched organoid cultures; assay type: cell-based
Method: Using the ISC-enriched organoid cultures, Applicants sought to assess the role of vitamin D's multiple metabolites on ISC proliferation and differentiation in vitro. Treatment of ISC-enriched organoid cultures with multiple vitamin D metabolites at 50 nM drives a reduction in cell number after 4 days of exposure (FIG. 45A). This reduction is attributed to reduced ISC self-renewal and differentiation to terminal epithelial cell types. To confirm increased differentiation of ISC-enriched organoids, mRNA markers of epithelial cells were assessed via quantitative PCR (FIG. 45B). […] By enhancing ISC differentiation, Applicants hypothesized that it may be possible to enhance barrier repair or integrity in IBD. Such effect could act synergistically with other known effects of vitamin D, and provide enhanced therapeutic benefit.
After observing that calcitriol, the primary active vitamin D metabolite, drove the most profound differentiation effect on in vitro ISC cultures, Applicants sought to investigate whether or not this effect is dose-dependent. Again, Applicants used the ISC-enriched organoid culture, and exposed varying concentrations of calcitriol for 4-day treatment periods.
Given that WNT signaling is central to ISC self-renewal and maintenance, Applicants investigated the role of calcitriol on ISC proliferation and WNT signal activity.

ISC-enriched organoids [7] = assay: Primary screen, 384-well 2.5-D organoid differentiation (ENR+CD, 6 days): basal lysozyme secretion (LYZ.NS); assay type: cell-based, murine; conditions: SSMD in LYZ.NS and LYZ.S assays
From the text: High-throughput screening.

[8] = calcitriol 1 nM to 100 nM, 4-day treatment

Cc1cn(-c2cc(NC(=O)c3ccc(C)c(Nc4nccc(-c5cccnc5)n4)c3)cc(C(F)(F)F)c2)cn1 [Nilotinib (AMN-107), Nilotinib]
Z.LYZ.S (ISC-enriched organoids [1]; Dose 0.10 uM): 0.339 | repSSMD.LYZ.S (ISC-enriched organoids [1]; Dose 0.10 uM): 0.652 | Z.LYZ.S (ISC-enriched organoids [1]; Dose 0.20 uM): 0.897 | repSSMD.LYZ.S (ISC-enriched organoids [1]; Dose 0.20 uM): 1.324 | Z.LYZ.S (ISC-enriched organoids [1]; Dose 0.80 uM): 1.099 | repSSMD.LYZ.S (ISC-enriched organoids [1]; Dose 0.80 uM): 0.953 | Z.LYZ.S (ISC-enriched organoids [1]; dose 0.40 uM): −0.053 | repSSMD.LYZ.S (ISC-enriched organoids [1]; dose 0.40 uM): −0.055 | Z.CTG (ISC-enriched organoids [2]; Dose 0.10 uM): 0.830 | repSSMD.CTG (ISC-enriched organoids [2]; Dose 0.10 uM): 0.571 | Z.CTG (ISC-enriched organoids [2]; Dose 0.20 uM): 1.098 | repSSMD.CTG (ISC-enriched organoids [2]; Dose 0.20 uM): 0.777 | Z.CTG (ISC-enriched organoids [2]; Dose 0.80 uM): 2.104 | repSSMD.CTG (ISC-enriched organoids [2]; Dose 0.80 uM): 1.535 | Z.CTG (ISC-enriched organoids [2]; dose 0.40 uM): 1.275 | repSSMD.CTG (ISC-enriched organoids [2]; dose 0.40 uM): 0.902 | mature Paneth cell population within organoids (Paneth cells; hit compound at most potent dose from 2.5-D screening, vs control): significantly decreased Paneth abundance | total cell number (Paneth cells; hit compound at most potent dose): significantly increasing total cell number | Z.CTG (ISC-enriched organoids [3]; Dose 0.08 uM): 0.769 | Z.CTG (ISC-enriched organoids [3]; Dose 0.40 uM): 0.831 | Z.CTG (ISC-enriched organoids [3]; Dose 2.00 uM): 0.577 | Z.CTG (ISC-enriched organoids [3]; Dose 10.00 uM): −0.029 | Z.LYZ.NS (ISC-enriched organoids [4]; Dose 0.10 uM): 0.734 | repSSMD.LYZ.NS (ISC-enriched organoids [4]; Dose 0.10 uM): 1.309 | Z.LYZ.NS (ISC-enriched organoids [4]; Dose 0.20 uM): 1.283 | repSSMD.LYZ.NS (ISC-enriched organoids [4]; Dose 0.20 uM): 1.683 | Z.LYZ.NS (ISC-enriched organoids [4]; Dose 0.80 uM): 1.317 | repSSMD.LYZ.NS (ISC-enriched organoids [4]; Dose 0.80 uM): 1.063 | Z.LYZ.NS (ISC-enriched organoids [4]; dose 0.40 uM): 0.805 | repSSMD.LYZ.NS (ISC-enriched organoids [4]; dose 0.40 uM): 1.064

Cc1ccc(C(=O)Cn2c3c(sc2=N)CCCC3)cc1 [pifithrin-a]
Paneth cell differentiation (functional LYZ secretion), in combination with KPT-330 (ISC-enriched organoids [5]): neither P53 inhibitor altered Paneth cell differentiation; also recorded: did not alter Paneth cell differentiation | Paneth cell differentiation (functional LYZ secretion), compound alone (ISC-enriched organoids [5]): neither P53 inhibitor altered Paneth cell differentiation; also recorded: did not alter Paneth cell differentiation

O=C(c1ccc(F)c(F)c1Nc1ccc(I)cc1F)N1CC(O)([C@@H]2CCCCN2)C1 [cobimetinib]
Paneth cell differentiation (functional LYZ secretion), in combination with KPT-330 (ISC-enriched organoids [5]): differentiation was enhanced; also recorded: significantly enhance Paneth cell differentiation; also recorded: proved synergistic in combination with KPT-330 | Paneth cell differentiation (functional LYZ secretion), compound alone (ISC-enriched organoids [5]): did not significantly alter Paneth cell differentiation

C=C1/C(=C\C=C2/CCC[C@]3(C)[C@@H]([C@H](C)CCCC(C)(C)O)CC[C@@H]23)C[C@@H](O)C[C@@H]1O [calcitriol, 1α,25-dihydroxyvitamin D3]
ISC differentiation (mRNA markers of epithelial cells) ([6]; 50 nM, 4 days, vs control culture): having the most profound effect | cell number [6, 8]: a decrease in cell number | markers of intestinal epithelial cells (mRNA), ISC differentiation [6, 8]: an increase in markers of intestinal epithelial cells in a dose-dependent manner | markers of intestinal epithelial cells (mRNA), ISC differentiation ([6]; calcitriol 1 nM to 100 nM, 4-day treatment, listed as Calcitriol): dose-dependent differentiation effect, primarily to goblet cells | cell cycle markers ([6]; calcitriol, 4 days): a weak connection to cell cycle inhibition | proliferation (Ki67) ([6]; calcitriol, 4 days, all doses): minimal change in proliferation at all doses | LGR5 expression ([6]; increasing calcitriol dosage, 4 days): a clear reduction in LGR5

c1ccc2c(CCNc3ccc(Nc4ccncc4)cc3)c[nH]c2c1 [serdemetan]
Paneth cell differentiation (functional LYZ secretion), in combination with KPT-330 (ISC-enriched organoids [5]): neither P53 inhibitor altered Paneth cell differentiation; also recorded: did not alter Paneth cell differentiation | Paneth cell differentiation (functional LYZ secretion), compound alone (ISC-enriched organoids [5]): neither P53 inhibitor altered Paneth cell differentiation; also recorded: did not alter Paneth cell differentiation

COc1cc2c(Nc3ccc(NC(=O)c4ccccc4)cc3)ncnc2cc1OCCCN1CCOCC1 [ZM447439, reference compound]
primary screen hit call (ISC-enriched organoids [7]): lower-effect size hit | Paneth cell differentiation (functional LYZ secretion), compound alone (ISC-enriched organoids [5]): did significantly increase Paneth cell differentiation

CC1=C(/C=C/C(=C/C=C/C(C)=C/C(=O)O)c2ccc(C)cc2)C(C)(C)CCC1 [SR11302]
Paneth cell differentiation (functional LYZ secretion), in combination with KPT-330 (ISC-enriched organoids [5]): significantly decreases functional LYZ secretion | Paneth cell differentiation (functional LYZ secretion), compound alone (ISC-enriched organoids [5]): also decreases functional LYZ secretion; also recorded: significantly decreases functional LYZ secretion

Source: patent publication US20230398130A1, “METHODS AND COMPOSITIONS FOR DIFFERENTIATING STEM CELLS” (Massachusetts Institute of Technology, priority 2020, published 2023)
